Laboratory results as given in patent publication EP0364819A2, “LHRH analogs” (The Administrators of The Tulane Educational Fund, priority 1988, dated 1990).

Experiments:
[1] = molecular target: T1, membrane receptors of rat pituitary (Rattus norvegicus, UniProt P30969); assay: Receptor binding to rat pituitary membranes with 125I-labeled [D-Trp6]LHRH; conditions: Table 2, antagonistic analogues; high affinity binding sites; pituitary of male rats; ¹²⁵l-labeled [D-Trp⁶]LHRH
T1 construct: membrane receptors of rat pituitary; from tissue; host or cells: rat pituitary membranes
T1 sequence (P30969 1-327): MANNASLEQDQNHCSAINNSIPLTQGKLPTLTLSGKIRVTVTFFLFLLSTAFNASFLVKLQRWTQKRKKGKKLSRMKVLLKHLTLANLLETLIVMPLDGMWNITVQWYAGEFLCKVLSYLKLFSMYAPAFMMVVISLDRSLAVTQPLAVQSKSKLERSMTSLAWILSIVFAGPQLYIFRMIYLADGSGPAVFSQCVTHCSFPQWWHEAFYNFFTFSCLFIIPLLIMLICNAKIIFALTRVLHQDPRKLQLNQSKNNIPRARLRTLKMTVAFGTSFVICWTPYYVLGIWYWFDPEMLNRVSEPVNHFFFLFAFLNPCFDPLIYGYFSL
Procedure: (§1) This is determined by using labelled LHRH and [D-Trp⁶]LHRH. The assay is carried out similarly to that described by T. Kadar et al., Proc. Natl. Acad. Sci. USA, 85, 890-894 (1988).
(§2) Table 2 presents the antiovulatory activity of the claimed compounds having LHRH-inhibiting properties. The inhibitory action was determined in vivo, in 4-day cycling rats as described [A. Corbin and C. W. Beattie, Endocr. Res. Commun., 2, 1-23 (1975)]. Affinities of the claimed compounds to membrane receptors of rat pituitary and human breast cancer cells are also given in Tables 1 and 2 as determined by using [[…],D-Trp⁶]LHRH.

[2] = molecular target: T2, membrane receptors of human breast cancer cells (Homo sapiens, UniProt P30968); assay: Receptor binding to human breast cancer cell membranes with 125I-labeled [D-Trp6]LHRH; conditions: Table 2, antagonistic analogues, high affinity binding sites, ¹²⁵l-labeled [D-Trp⁶]LHRH
T2 construct: human prostate and breast cancer cell membranes; endogenous in cells
T2 sequence (P30968 1-328): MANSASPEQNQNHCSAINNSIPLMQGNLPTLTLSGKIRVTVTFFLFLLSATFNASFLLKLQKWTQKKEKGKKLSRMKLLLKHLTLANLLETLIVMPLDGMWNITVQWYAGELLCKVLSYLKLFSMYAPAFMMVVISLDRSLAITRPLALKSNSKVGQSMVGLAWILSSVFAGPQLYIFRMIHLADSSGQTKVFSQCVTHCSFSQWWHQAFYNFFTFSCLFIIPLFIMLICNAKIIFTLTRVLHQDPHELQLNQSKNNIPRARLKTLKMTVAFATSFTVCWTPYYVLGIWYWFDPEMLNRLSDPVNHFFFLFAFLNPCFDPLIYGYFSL
Procedure: (§3) (c)Affinity for peptides to human prostate and breast cancer cell membranes.
as §1, §2

[3] = system: 4-day cycling rats; assay: In vivo antiovulatory activity in 4-day cycling rats; conditions: 4-day cyclic rats
Procedure: This activity of the peptides is determined in 4-day-cycling rats as described [A. Corbin and C. W.Beattie, Endocr. Res. Commun. 2, 1-23(1975)].
as §2

[4] = prior art analogues with Chlorambucil as cytotoxic moiety; cited from earlier work
[5] = system: membrane receptors of human prostate cancer; assay: Receptor binding to human prostate cancer membranes with 125I-labeled [D-Trp6]LHRH; conditions: first receptor class (high affinity binding sites)
Procedure: as §3, §1

[6] = system: membrane receptors of Dunning tumor; assay: Receptor binding to Dunning tumor membranes with 125I-labeled [D-Trp6]LHRH; conditions: first receptor class (high affinity binding sites); rat Dunning tumor
Procedure: as §1

Molecule | Binding affinity, Ka1, for membrane receptors of pituitary [1] [nM-¹] | Binding affinity, Ka1, for membrane receptors of cancer cells [2] [nM-¹] | activities (LHRH agonist or antagonist) [4] | also measured
Ac-D-Nal(2)-D-Phe(4Cl)-D-Trp-Ser-Arg-D-Lys[(Ni⁺⁺)(SAL)₂(DL-A₂pr)]-Leu-Arg-Pro-D-Ala-NH₂ [Example XV] | 8.676 | 4.418 |  | Hormonal activity* %Blockade of ovulation ([3]; Dose 3 µg/rat): 20%
[Chlorambucil-D-Phe¹,D-Phe²,D-Trp³ʼ⁶]LHRH |  |  | practically inactive | 
[D-Lys(Chlorambucil)⁶] LHRH |  |  | moderate activities | 
Ac-D-Nal(2)-D-Phe(4Cl)-D-Pal(3)-Ser-Arg-D-Mel-Leu-Arg-Pro-D-Ala-NH₂ [Example II] | 7.190 | 3.967 |  | Human prostate cancer* Ka1 [5]: 0.7 nM⁻¹; Dunning tumor* Ka1 [6]: 1.68 nM⁻¹
Ac-D-Nal(2)-D-Phe(4Cl)-D-Pal(3)-Ser-Arg-D-Lys[(Cu⁺⁺)(POL)₂(DL-A₂pr)]-Leu-Arg-Pro-D-Ala-NH₂ [XXIV] | 5.483 | 2.628 |  | Hormonal activity* %Blockade of ovulation ([3]; Dose 3 µg/rat): 50%
CC(C)C[C@H](NC(=O)[C@@H](Cc1c[nH]c2ccccc12)NC(=O)[C@H](Cc1ccc(O)cc1)NC(=O)[C@H](CO)NC(=O)[C@H](Cc1c[nH]c2ccccc12)NC(=O)[C@H](Cc1c[nH]cn1)NC(=O)[C@@H]1CCC(=O)N1)C(=O)N[C@@H](CCCNC(=N)N)C(=O)N1CCC[C@H]1C(=O)NCC(N)=O [[D-Trp⁶]-LHRH, reference compound] |  |  |  | Human prostate cancer* Ka1 [5]: 0.04 nM⁻¹; Dunning tumor* Ka1 [6]: 1.87 nM⁻¹
Ac-D-Nal(2)-D-Phe(4Cl)-D-Trp-Ser-Arg-D-Lys[(Cu⁺⁺)(POLP)₂(DL-A₂pr)]-Leu-Arg-Pro-D-Ala-NH₂ [Example XXII] | 2.901 | 1.337 |  | Hormonal activity* %Blockade of ovulation ([3]; Dose 10 µg/rat): 60%
[Chlorambucil-D-Leu²,D-Leu³,D-Ala⁶]LHRH (2-10) |  |  | moderate activities | 
